From paper PMC9299836 (eLife, 2022)
“And” between values parts separate entries of the source, which are not always exact repeats. Equal entries are not always repeated.

How the values were obtained:
mGluR2 [1] = target: T1, mGluR2 (Mus musculus, UniProt Q14BI2); experiment: Functional calcium imaging, SNAP-mGluR2 (no FLAG-tag) with chimeric G protein Gqo5 in HEK293T cells; format: cell-based; set-up: Full length mGluR2 construct with an amber codon (TAG) mutation of amino acid A548 (azi-CRD) or N-terminal SNAP-tag (SNAP-mGluR2); host or cells: HEK293T; conditions: modulator alone; precluded analysis of glutamate potency and efficacy
mGluR2 [2] = target: T1, mGluR2; experiment: Live-cell FRET, SNAP-m2 (VFT domain) inter-subunit sensor in HEK293T cells; conditions: for SNAP-m2 FRET response (PAM DRC) / SNAP-m2 FRET response (PAM DRC), Mean: Glutamate + 5μM LY487379; for SNAP-m2 FRET response (PAM DRC): individual cells, normalized to 1mM glutamate;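 on all read-outs here: apparent FRET efficiency from whole-membrane ROIs of single cells, corrected for donor bleed-through and background, ΔFRET as treatment minus pretreatment signal, recorded at room temperature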
mGluR2 [3] = target: mGluR2 (Mus musculus, UniProt Q14BI2, INS715F); experiment: Live-cell FRET, azi-ECL2 (7TM domain, extracellular loop 2) sensor in HEK293T cells; conditions: for Mean normalized azi-ECL2 FRET response: glutamate + 5μM modulator, maximal response normalized to 1mM glutamate;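 on all read-outs here: Cy3/Cy5 click-labeled sensor, whole-membrane ROIs per cell, apparent FRET after bleed-through correction, ΔFRET as treatment minus pre-treatment signal, at room temperature, at least three biological replicates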
mGluR2 [4] = target: mGluR2 (Mus musculus, UniProt Q14BI2, A548F); experiment: Live-cell FRET, azi-CRD (cysteine-rich domain) sensor in HEK293T cells; conditions: for Mean normalized FRET response, azi-CRD PAM DRC: glutamate + 5μM LY487379, maximal response normalized to 1mM glutamate
[5] = 5μM LY487379, ([1 mM glutamate + modulator] - [1 mM glutamate]) × 100

Sequence of mGluR2 (Mus musculus, UniProt Q14BI2, A548F) (Q14BI2 19-872 A548F): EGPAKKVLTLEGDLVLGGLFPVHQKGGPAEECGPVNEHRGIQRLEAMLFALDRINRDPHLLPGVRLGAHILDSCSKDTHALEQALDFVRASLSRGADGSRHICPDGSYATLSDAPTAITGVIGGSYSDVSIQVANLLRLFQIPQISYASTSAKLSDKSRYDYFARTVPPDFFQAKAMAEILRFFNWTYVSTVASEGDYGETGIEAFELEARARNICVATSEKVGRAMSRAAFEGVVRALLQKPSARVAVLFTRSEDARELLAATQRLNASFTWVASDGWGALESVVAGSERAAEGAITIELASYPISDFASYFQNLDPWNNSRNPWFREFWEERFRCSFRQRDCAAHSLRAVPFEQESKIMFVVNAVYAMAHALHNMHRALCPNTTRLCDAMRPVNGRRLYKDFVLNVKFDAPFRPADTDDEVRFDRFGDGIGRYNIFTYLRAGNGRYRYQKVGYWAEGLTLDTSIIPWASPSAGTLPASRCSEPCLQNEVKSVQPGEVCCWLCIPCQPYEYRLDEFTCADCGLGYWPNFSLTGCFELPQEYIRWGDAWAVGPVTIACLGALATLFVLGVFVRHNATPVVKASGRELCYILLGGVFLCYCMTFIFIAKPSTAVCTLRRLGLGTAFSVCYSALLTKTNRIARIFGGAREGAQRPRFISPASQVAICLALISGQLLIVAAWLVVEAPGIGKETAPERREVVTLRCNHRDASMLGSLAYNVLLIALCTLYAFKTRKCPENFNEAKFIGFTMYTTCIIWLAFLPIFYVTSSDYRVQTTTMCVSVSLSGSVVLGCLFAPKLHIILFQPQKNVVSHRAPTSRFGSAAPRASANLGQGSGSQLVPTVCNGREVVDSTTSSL
T1 sequence (Q14BI2 19-872): as the sequence (Q14BI2 19-872 A548F) above, with F530A counted along it
Sequence of mGluR2 (Mus musculus, UniProt Q14BI2, INS715F) (Q14BI2 with tags, fused parts or gaps INS715F): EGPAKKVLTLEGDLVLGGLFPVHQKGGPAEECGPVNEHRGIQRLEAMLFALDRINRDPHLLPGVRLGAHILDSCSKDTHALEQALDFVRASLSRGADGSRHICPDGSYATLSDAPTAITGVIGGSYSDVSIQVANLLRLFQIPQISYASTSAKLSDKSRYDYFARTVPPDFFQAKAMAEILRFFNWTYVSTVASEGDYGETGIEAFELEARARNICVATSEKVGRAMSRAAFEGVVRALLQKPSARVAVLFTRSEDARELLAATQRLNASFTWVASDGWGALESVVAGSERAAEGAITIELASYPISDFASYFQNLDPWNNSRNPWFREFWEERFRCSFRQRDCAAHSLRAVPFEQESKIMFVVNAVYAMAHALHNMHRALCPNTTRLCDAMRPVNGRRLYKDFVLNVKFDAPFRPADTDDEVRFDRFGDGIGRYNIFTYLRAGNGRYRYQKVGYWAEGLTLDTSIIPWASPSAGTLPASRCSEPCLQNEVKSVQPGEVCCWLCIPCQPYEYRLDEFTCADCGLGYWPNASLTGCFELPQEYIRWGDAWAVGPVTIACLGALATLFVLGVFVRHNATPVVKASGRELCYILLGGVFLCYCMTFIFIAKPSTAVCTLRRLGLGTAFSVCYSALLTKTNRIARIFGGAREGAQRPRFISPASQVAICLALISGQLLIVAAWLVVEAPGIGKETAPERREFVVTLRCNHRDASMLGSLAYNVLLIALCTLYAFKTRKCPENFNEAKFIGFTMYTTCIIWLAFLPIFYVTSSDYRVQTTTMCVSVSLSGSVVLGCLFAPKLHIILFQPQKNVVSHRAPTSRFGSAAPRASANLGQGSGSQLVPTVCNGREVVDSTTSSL

COc1ccccc1Oc1ccc(N(Cc2cccnc2)S(=O)(=O)CC(F)(F)F)cc1 [LY487379, N -(4-(2-Methoxyphenoxy)phenyl)-N -(2,2,2− trifluoroethylsulfonyl)pyrid-3-ylmethylamine]
Effect of modulator itself on intracellular calcium flux (mGluR2 [1]): Direct activation of mGluR2 | SNAP-m2 - ΔEfficacy, Mean ΔEfficacy (mGluR2 [2]; [5]): 7.324 | SNAP-m2 FRET response (PAM DRC) (mGluR2 [2]; log[Glutamate] (M) -3): -1.073 | SNAP-m2 FRET response (PAM DRC), Mean (mGluR2 [2]; log[Glutamate] (M) -3): -1.073 | SNAP-m2 FRET response (PAM DRC) (mGluR2 [2]; log[Glutamate] (M) -4.1549): -1.073 and -1.043 and -1.045 and -1.173 | SNAP-m2 FRET response (PAM DRC), Mean (mGluR2 [2]; log[Glutamate] (M) -4.1549): -1.083 | SNAP-m2 FRET response (PAM DRC) (mGluR2 [2]; log[Glutamate] (M) -4.52288): -1.073 and -1.028 and -1.065 and -1.205 | SNAP-m2 FRET response (PAM DRC), Mean (mGluR2 [2]; log[Glutamate] (M) -4.52288): -1.093 | SNAP-m2 FRET response (PAM DRC) (mGluR2 [2]; log[Glutamate] (M) -5): -0.9102 and -0.7407 and -0.8397 and -1.14 | SNAP-m2 FRET response (PAM DRC), Mean (mGluR2 [2]; log[Glutamate] (M) -5): -0.9075 | SNAP-m2 FRET response (PAM DRC) (mGluR2 [2]; log[Glutamate] (M) -5.39794): -0.5434 and -0.4233 and -0.4506 and -0.9619 | SNAP-m2 FRET response (PAM DRC), Mean (mGluR2 [2]; log[Glutamate] (M) -5.39794): -0.5948 | SNAP-m2 FRET response (PAM DRC) (mGluR2 [2]; log[Glutamate] (M) -5.82391): -0.2581 and -0.136 and -0.1638 and -0.657 | SNAP-m2 FRET response (PAM DRC), Mean (mGluR2 [2]; log[Glutamate] (M) -5.82391): -0.3038 | SNAP-m2 FRET response (PAM DRC) (mGluR2 [2]; log[Glutamate] (M) -6.52288): -0.05434 and 0 and -0.02048 and -0.1132 | SNAP-m2 FRET response (PAM DRC), Mean (mGluR2 [2]; log[Glutamate] (M) -6.52288): -0.047 | SNAP-m2 FRET response (PAM DRC) (mGluR2 [2]; log[Glutamate] (M) -7): 0 | SNAP-m2 FRET response (PAM DRC), Mean (mGluR2 [2]; log[Glutamate] (M) -7): 0 | SNAP-m2 FRET response (PAM DRC) (mGluR2 [2]; log[Glutamate] (M) -7.30103): 0 | SNAP-m2 FRET response (PAM DRC), Mean (mGluR2 [2]; log[Glutamate] (M) -7.30103): 0 | SNAP-m2 FRET response (PAM DRC) (mGluR2 [2]; log[Glutamate] (M) -7.69897): 0 | SNAP-m2 FRET response (PAM DRC), Mean (mGluR2 [2]; log[Glutamate] (M) -7.69897): 0 | Mean max response (normalized max ΔFRET) (mGluR2 [2]; SNAP-m2, 1 mM glutamate + 5 μM modulator, normalized to 1 mM glutamate): 1.07 | Mean ΔPotency (mGluR2 [2]; SNAP-m2, 5μM modulator, (([modulator + glutamate]EC50 – [glutamate] EC50)/[glutamate] EC50) × 100): -67.8391 | Mean ΔEfficacy (mGluR2 [2]; SNAP-m2, 5μM modulator, ([1 mM glutamate + modulator] - [1 mM glutamate]) × 100): 7.324 | Hill slope of glutamate titration (mGluR2 [2]; SNAP-m2 sensor, + 5 μM modulator): –1.43 | azi-ECL2 - ΔEfficacy, Mean ΔEfficacy (mGluR2 [3]; [5]): 24.615 | Mean ΔPotency (mGluR2 [3]; 5μM modulator, (([modulator + glutamate]EC50 – [glutamate] EC50)/[glutamate] EC50) × 100): -30.8994 | ΔPotency, individual cell responses (mGluR2 [3]; 5μM modulator, single cells, (([modulator + glutamate]EC50 – [glutamate] EC50)/[glutamate] EC50) × 100): -50.558 and -25.4476 and -23.8904 and -47.6382 and -34.9857 and -54.4511 and -26.0316 and -30.3706 and -10.8251 and 8.313 and -4.368 and -31.1486 and -23.7197 and -38.0027 and -24.5685 and -37.4665 and -50.1273 and -31.7846 and -24.8874 and -46.4706 | ΔEfficacy, individual cell responses (mGluR2 [3]; 5μM modulator, single cells, ([1 mM glutamate + modulator] - [1 mM glutamate]) × 100): 52.1008 and 4.706 and 3.279 and -3.644 and 40.8403 and 19.2658 and 55.7571 | Mean max response (normalized max ΔFRET) (mGluR2 [3]; azi-ECL2, 1 mM glutamate + 5 μM modulator, normalized to 1 mM glutamate): 1.25 | Hill slope of glutamate titration (mGluR2 [3]; azi-ECL2 sensor, + 5 μM modulator): 0.98 | Live-cell FRET max response normalized to 1mM glutamate (mGluR2 [3]; azi-ECL2 sensor, Glutamate + 5μM LY487379, individual values (N=7)): 1.4084 and 1.193 and 1.558 and 1.521 and 1.047 and 1.033 and 0.9636 | Mean normalized azi-ECL2 FRET response (mGluR2 [3]; log[Glutamate] (M) -3): 1.246 | Mean normalized azi-ECL2 FRET response (mGluR2 [3]; log[Glutamate] (M) -4.1549): 1.162 | Mean normalized azi-ECL2 FRET response (mGluR2 [3]; log[Glutamate] (M) -4.52288): 1.05 | Mean normalized azi-ECL2 FRET response (mGluR2 [3]; log[Glutamate] (M) -5): 0.9021 | Mean normalized azi-ECL2 FRET response (mGluR2 [3]; log[Glutamate] (M) -5.39794): 0.6628 | Mean normalized azi-ECL2 FRET response (mGluR2 [3]; log[Glutamate] (M) -5.82391): 0.3586 | Mean normalized azi-ECL2 FRET response (mGluR2 [3]; log[Glutamate] (M) -6.52288): 0.0516 | Mean normalized azi-ECL2 FRET response (mGluR2 [3]; log[Glutamate] (M) -7): 0.00565 | Mean normalized azi-ECL2 FRET response (mGluR2 [3]; log[Glutamate] (M) -7.30103): 0 | Mean normalized azi-ECL2 FRET response (mGluR2 [3]; log[Glutamate] (M) -7.69897): 0 | azi-CRD - ΔEfficacy, Mean ΔEfficacy (mGluR2 [4]; [5]): 56.4462 | azi-CRD - ΔEfficacy, individual cell responses (mGluR2 [4]; 5μM LY487379, single cells): 81.7927 and 91.1647 and 102.83 and 105.34 and 78.0041 and 66.6667 and 72.6804 and 69.5464 and 76.2911 and 41.9214 and 42.0188 and 53.8462 and 0 and 21.4575 and 34.4595 and 42.2449 and 30.2041 and 33.2258 and 28.7834 | Hill slope of glutamate titration (mGluR2 [4]; azi-CRD sensor, + 5 μM modulator): 0.91 | Mean max response (normalized max ΔFRET) (mGluR2 [4]; azi-CRD, 1 mM glutamate + 5 μM modulator, normalized to 1 mM glutamate): 1.56 | Mean ΔPotency (mGluR2 [4]; azi-CRD, 5μM modulator, (([modulator + glutamate]EC50 – [glutamate] EC50)/[glutamate] EC50) × 100): -61.3748 | ΔPotency, individual cell (mGluR2 [4]; azi-CRD, 5μM modulator, calculated from individual cell responses): -86.3622 and -82.4274 and -82.7128 and -78.2764 and -89.1123 and -88.282 and -87.867 and -88.628 and -87.1232 and -72.2401 and -70.8565 and -64.63 and -55.982 and -66.7055 and -27.5303 and -19.9202 and -46.4693 and -21.7362 and -27.2709 and -11.7911 and -36.6107 and -57.7116 | Mean normalized FRET response, azi-CRD PAM DRC (mGluR2 [4]; log[Glutamate] (M) -3): 1.564 | Mean normalized FRET response, azi-CRD PAM DRC (mGluR2 [4]; log[Glutamate] (M) -4.1549): 1.506 | Mean normalized FRET response, azi-CRD PAM DRC (mGluR2 [4]; log[Glutamate] (M) -4.52288): 1.431 | Mean normalized FRET response, azi-CRD PAM DRC (mGluR2 [4]; log[Glutamate] (M) -5): 1.21 | Mean normalized FRET response, azi-CRD PAM DRC (mGluR2 [4]; log[Glutamate] (M) -5.39794): 0.9243 | Mean normalized FRET response, azi-CRD PAM DRC (mGluR2 [4]; log[Glutamate] (M) -5.82391): 0.548 | Mean normalized FRET response, azi-CRD PAM DRC (mGluR2 [4]; log[Glutamate] (M) -6.52288): 0.2035 | Mean normalized FRET response, azi-CRD PAM DRC (mGluR2 [4]; log[Glutamate] (M) -7): 0.1104 | Mean normalized FRET response, azi-CRD PAM DRC (mGluR2 [4]; log[Glutamate] (M) -7.30103): 0.08348 | Mean normalized FRET response, azi-CRD PAM DRC (mGluR2 [4]; log[Glutamate] (M) -7.69897): 0
